Experimental data from patent US20230250129A1, “NEUROACTIVE STEROIDS AND COMPOSITIONS THEREOF” (Sage Therapeutics, Inc., priority 2020, published 2023).
pIC50: −log10 of the molar value.

The compounds below were run against [35S]-TBPS binding, rat brain cortical membranes (GABAA receptor) (assay: Steroid inhibition of [35S]-TBPS binding). Settings: 3 nM [35S]-TBPS, in the presence of 5 mM GABA, 90 min at room temp.
Procedure: Steroid Inhibition of TBPS Binding
[^35S]-t-Butylbicyclophosphorothionate (TBPS) binding assays using rat brain cortical membranes in the presence of 5 mM GABA has been described (Gee et al, J. Pharmacol. Exp. Ther. 1987, 241, 346-353; Hawkinson et al, Mol. Pharmacol. 1994, 46, 977-985; Lewin, A. H et al., Mol. Pharmacol. 1989, 35, 189-194).
Briefly, cortices are rapidly removed following decapitation of carbon dioxide-anesthetized Sprague-Dawley rats (200-250 g). The cortices are homogenized in 10 volumes of ice-cold 0.32 M sucrose using a glass/teflon homogenizer and centrifuged at 1500×g for 10 min at 4° C. The resultant supernatants are centrifuged at 10,000×g for 20 min at 4° C. to obtain the P2 pellets. The P2 pellets are resuspended in 200 mM NaCl/50 mM Na—K phosphate pH 7.4 buffer and centrifuged at 10,000×g for 10 min at 4° C. This washing procedure is repeated twice and the pellets are resuspended in 10 volumes of buffer. Aliquots ([…]) of the membrane suspensions are incubated with 3 nM [^35S]-TBPS and […] aliquots of test drug dissolved in dimethyl sulfoxide (DMSO) (final 0.5%) in the presence of 5 mM GABA. The incubation is brought to a final volume of 1.0 mL with buffer. Nonspecific binding is determined in the presence of […] and ranged from 15 to 25%. Following a 90 min incubation at room temp, the assays are terminated by filtration through glass fiber filters (Schleicher and Schuell No. 32) using a cell harvester (Brandel) and rinsed three times with ice-cold buffer. Filter bound radioactivity is measured by liquid scintillation spectrometry. Non-linear curve fitting of the overall data for each drug averaged for each concentration is done using Prism (GraphPad). […] The concentration of test compound producing 50% inhibition (IC50) of specific binding and the maximal extent of inhibition (Imax) are determined for the individual experiments with the same model used for the overall data and then the means±SEM.s of the individual experiments are calculated.
Various compounds are or can be screened to determine their potential as modulators of [^35S]-TBPS binding in vitro. These assays are or can be performed in accordance with the above
In the case of `CCC[C@@]1(O)CC[C@H]2[C@H](CC[C@@H]3[C@@H]2CC[C@]2(C)[C@@H](C(=O)Nc4ncc(C#N)cn4)CC[C@@H]32)C1` [Compound 90, (3R,5R,8R,9R,10S,13S,14S,17S)—N-(5-cyanopyrimidin-2-yl)-3-hydroxy-13-methyl-3-propylhexadecahydro-1H-cyclopenta[a]phenanthrene-17-carboxamide], the pIC50 was over 7.00. `COC[C@@]1(O)CC[C@H]2[C@H](CC[C@@H]3[C@@H]2CC[C@]2(C)[C@@H](C(=O)Nc4ccnc(C#N)n4)CC[C@@H]32)C1` [Compound 91, (3R,5R,8R,9R,10S,13S,14S,17S)—N-(2-cyanopyrimidin-4-yl)-3-hydroxy-3-(methoxymethyl)-13-methylhexadecahydro-1H-cyclopenta[a]phenanthrene-17-carboxamide] showed a pIC50 of over 7.00. Compound `COC[C@@]1(O)CC[C@H]2[C@H](CC[C@@H]3[C@@H]2CC[C@]2(C)[C@@H](C(=O)Nc4nccc(C#N)n4)CC[C@@H]32)C1` [Compound 92, (3R,5R,8R,9R,10S,13S,14S,17S)—N-(4-cyanopyrimidin-2-yl)-3-hydroxy-3-(methoxymethyl)-13-methylhexadecahydro-1H-cyclopenta[a]phenanthrene-17-carboxamide] has a pIC50 of 6.00 to 7.00. With `CCC[C@@]1(O)CC[C@H]2[C@H](CC[C@@H]3[C@@H]2CC[C@]2(C)[C@@H](C(=O)Nc4nccc(C#N)n4)CC[C@@H]32)C1` [Compound 93, (3R,5R,8R,9R,10S,13S,14S,17S)—N-(4-cyanopyrimidin-2-yl)-3-hydroxy-13-methyl-3-propylhexadecahydro-1H-cyclopenta[a]phenanthrene-17-carboxamide] the pIC50 was over 7.00. `COC[C@@]1(O)CC[C@H]2[C@H](CC[C@@H]3[C@@H]2CC[C@]2(C)[C@@H](C(=O)Nc4cc(C#N)ncn4)CC[C@@H]32)C1` [Compound 94, (3R,5R,8R,9R,10S,13S,14S,17S)—N-(6-cyanopyrimidin-4-yl)-3-hydroxy-3-(methoxymethyl)-13-methylhexadecahydro-1H-cyclopenta[a]phenanthrene-17-carboxamide] showed a pIC50 of over 7.00. In the case of `COC[C@@]1(O)CC[C@H]2[C@H](CC[C@@H]3[C@@H]2CC[C@]2(C)[C@@H](C(=O)Nc4cncc(C#N)n4)CC[C@@H]32)C1` [Compound 95, (3R,5R,8R,9R,10S,13S,14S,17S)—N-(6-cyanopyrazin-2-yl)-3-hydroxy-3-(methoxymethyl)-13-methylhexadecahydro-1H-cyclopenta[a]phenanthrene-17-carboxamide], the pIC50 was over 7.00. Compound `C[C@@]1(O)CC[C@H]2[C@H](CC[C@@H]3[C@@H]2CC[C@]2(C)[C@@H](C(=O)Nc4ccccc4)CCC[C@@H]32)C1` [Compound 98, (1S,4aS,4bR,6aR,8R,10aS,10bR,12aS)-8-hydroxy-8,12a-dimethyl-N-phenyloctadecahydrochrysene-1-carboxamide] has a pIC50 of over 7.00. With `CC[C@]12CC[C@@](C)(O)C[C@H]1CC[C@H]1[C@@H]3CCC[C@H](C(=O)Nc4ccccc4)[C@@]3(C)CC[C@@H]12` [Compound 99, (1S,4aS,4bS,6aR,8R,10aS,10bS,12aS)-10a-ethyl-8-hydroxy-8,12a-dimethyl-N-phenyloctadecahydrochrysene-1-carboxamide] the pIC50 was over 7.00. With `CCOC[C@@]1(O)CC[C@@]2(CC)[C@H](CC[C@H]3[C@@H]4CCC[C@H](C(=O)Nc5cc(C)n(C)n5)[C@@]4(C)CC[C@@H]32)C1` [Compound 100, (4aS,4bS,6aR,8R,10aS,10bS,12aS)—N-(1,5-dimethyl-1H-pyrazol-3-yl)-8-(ethoxymethyl)-0a-ethyl-8-hydroxy-12a-methyloctadecahydrochrysene-1-carboxamide] the pIC50 was over 7.00. Compound `CCOC[C@@]1(O)CC[C@@]2(CC)[C@H](CC[C@H]3[C@@H]4CCC[C@H](C(=O)Nc5cc(C)nn5C)[C@@]4(C)CC[C@@H]32)C1` [Compound 101, (1S,4aS,4bS,6aR,8R,10aS,10bS,12aS)—N-(1,3-dimethyl-1H-pyrazol-5-yl)-8-(ethoxymethyl)-10a-ethyl-8-hydroxy-12a-methyloctadecahydrochrysene-1-carboxamide] has a pIC50 of over 7.00.
